IC50 data for 26 compounds are collected here from patent US8980888B2, “Pyrazole derivative” (Mochida Pharmaceutical Co., Ltd., priority 2013, dated 2015).

For the assay, the target named is T1, Human PDE10 (Homo sapiens, UniProt Q9Y233).
T1 construct: purchased BPA Bioscience (so in the source)
Put plainly: Human PDE10 inhibitory effect (IMAP TR-FRET enzyme inhibition assay). The format is biochemical. The conditions noted are these: PDE10 inhibitory activity, cAMP substrate. On the procedure:
(Evaluation of Enzyme Inhibitory Activity: Human PDE10 Inhibitory Effect)
IMAP TR-FRET Phosphodiersterase Evaluation Assay Kit (Molecular Device) was used for the measurement. Ten μL of a diluted test compound having each concentration and 5 μL of the enzyme PDE10 (BPA Bioscience) that had been diluted to 2 ng/mL with 1×IMAP Reaction Buffer (prepared with 5× included with the kit, 10 mM Tris-HCl, pH=7.2, 10 mM MgCl2, 0.05% NaN3, and 0.1% BSA) containing 0.1% BSA were added to a 384-well plate (Corning). The obtained mixture was then pre-incubated at room temperature for 5 minutes. Thereafter, 5 μL of cAMP substrate solution which was included with the kit and diluted to 400 nM with 1×IMAP Reaction Buffer containing 0.1% BSA, was added to the reaction solution, and the obtained mixture was reacted at room temperature for 60 minutes. Thereafter, 60 μL of an IMAP TR-FRET Binding solution included with the kit was further added to the reaction solution, and the obtained mixture was then left for 3 hours or more. Subsequently, using ARVO SX (PerkinElmer), the fluorescent intensity of Terbium (Emission=490 nm) and TR-FRET (Emission=520 nm) in the reaction solution were measured at an excitation wavelength of 340 nm, so as to calculate the amount of the generated 5′-AMP. The count of a well to which a solvent had been added instead of the test compound was set at 0%, and the count of a well to which the enzyme PDE10 had not been added was set at 100%. Thus, the inhibitory activity of each test compound was calculated.
The PDE10 inhibitory activity of the test compound was indicated with an IC50 value. […] The test compounds are shown in Table 3 (Table 3-1 and Table 3-2).

T1 sequence (Q9Y233 whole entry): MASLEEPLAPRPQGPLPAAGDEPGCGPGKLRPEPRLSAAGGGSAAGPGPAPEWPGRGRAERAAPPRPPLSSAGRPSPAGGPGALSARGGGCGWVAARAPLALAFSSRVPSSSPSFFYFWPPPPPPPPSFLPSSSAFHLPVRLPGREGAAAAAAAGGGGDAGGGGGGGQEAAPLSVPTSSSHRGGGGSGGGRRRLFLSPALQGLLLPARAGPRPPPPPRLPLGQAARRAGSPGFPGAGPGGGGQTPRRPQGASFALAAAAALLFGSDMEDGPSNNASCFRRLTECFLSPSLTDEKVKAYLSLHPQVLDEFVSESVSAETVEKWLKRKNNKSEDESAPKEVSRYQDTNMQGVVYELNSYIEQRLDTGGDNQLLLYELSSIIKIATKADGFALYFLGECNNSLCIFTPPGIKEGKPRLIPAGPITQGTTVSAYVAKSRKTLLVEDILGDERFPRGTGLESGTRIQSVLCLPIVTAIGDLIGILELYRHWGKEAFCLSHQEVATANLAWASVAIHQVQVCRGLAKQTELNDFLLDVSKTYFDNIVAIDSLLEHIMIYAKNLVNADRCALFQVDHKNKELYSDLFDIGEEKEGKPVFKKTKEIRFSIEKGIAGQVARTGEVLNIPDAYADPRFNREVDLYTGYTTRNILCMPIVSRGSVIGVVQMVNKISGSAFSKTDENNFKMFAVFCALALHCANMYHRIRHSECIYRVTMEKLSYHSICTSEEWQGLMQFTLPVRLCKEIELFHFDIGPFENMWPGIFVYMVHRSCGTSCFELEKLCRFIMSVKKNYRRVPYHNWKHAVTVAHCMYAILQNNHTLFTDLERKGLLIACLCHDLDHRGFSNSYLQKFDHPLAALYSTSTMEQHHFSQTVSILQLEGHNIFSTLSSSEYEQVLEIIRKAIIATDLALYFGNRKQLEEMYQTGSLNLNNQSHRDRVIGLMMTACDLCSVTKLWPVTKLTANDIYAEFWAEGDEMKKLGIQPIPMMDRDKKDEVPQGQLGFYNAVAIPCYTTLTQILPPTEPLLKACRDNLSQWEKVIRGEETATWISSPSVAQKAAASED

As for `Cn1ncc(-c2nc(C(F)F)cs2)c1C(=O)NC1CCn2nc(-c3ccccc3F)nc2C1` (centres unmarked) [Example 5.32, 4-(4-(difluoromethyl)thiazol-2-yl)-N-(2-(2-fluorophenyl)-5,6,7,8-tetrahydro-[1,2,4]triazolo[1,5-a]pyridin-7-yl)-1-methyl-1H-pyrazole-5-carboxamide], the half-maximal inhibitory concentration (IC50) (as a rule, the concentration that inhibits the measured activity by half) was 5 to 100 nM.
For `Cn1cnc(-c2cnn(C)c2C(=O)NC2CCn3cc(-c4ccccc4)nc3C2)c1` (centres unmarked) [Example 2.17, 1-methyl-4-(1-methyl-1H-imidazol-4-yl)-N-(2-phenyl-5,6,7,8-tetrahydroimidazo[1,2-a]pyridin-7-yl)-1H-pyrazole-5-carboxamide] the value was 5 to 100 nM; for `Cn1ncc(-c2nc(C(F)F)cs2)c1C(=O)NC1CCn2nc(-c3ccc(F)cc3)nc2C1` (centres unmarked) [Example 5.2, 4-(4-(difluoromethyl)thiazol-2-yl)-N-(2-(4-fluorophenyl)-5,6,7,8-tetrahydro-[1,2,4]triazolo[1,5-a]pyridin-7-yl)-1-methyl-1H-pyrazole-5-carboxamide], 5 to 100 nM.
For `COc1ccccc1-c1nc2cc(NC(=O)c3c(-c4nc(C(F)F)c(Cl)s4)cnn3C)cc(Cl)n2n1` [Example 3.21, N-(5-chloro-2-(2-methoxyphenyl)-[1,2,4]triazolo[1,5-a]pyridin-7-yl)-4-(5-chloro-4-(difluoromethyl)thiazol-2-yl)-1-methy 1-1H-pyrazole-5-carboxamide] the value was 5 to 100 nM.
For `Cn1ncc(-c2nc(C#N)cs2)c1C(=O)NC1CCn2nc(-c3ccccc3)nc2C1` (centres unmarked) [Example 5.10, 4-(4-cyanothiazol-2-yl)-1-methyl-N-(2-phenyl-5,6,7,8-tetrahydro-[1,2,4]triazolo[1,5-a]pyridin-7-yl)-1H-pyrazole-5-carboxamide], the IC50 was in the range of 5 to 100 nM.
For `Cc1cnc(-c2cnn(C)c2C(=O)Nc2cc3nc(-c4ccccc4)nn3cc2F)cn1` [Example 3.2, N-(6-fluoro-2-phenyl-[1,2,4]triazolo[1,5-a]pyridin-7-yl)-1-methyl-4-(5-methylpyrazin-2-yl)-1H-pyrazole-5-carboxamide] the value was less than 5 nM.
For `Cn1ncc(-c2ccc(F)cn2)c1C(=O)NC1CCn2nc(-c3ccccc3)nc2C1` (centres unmarked) [Example 5.24, 4-(5-fluoropyridin-2-yl)-1-methyl-N-(2-phenyl-5,6,7,8-tetrahydro-[1,2,4]triazolo[1,5-a]pyridin-7-yl)-1H-pyrazole-5-carboxamide] the value was 5 to 100 nM.
Compound `Cc1nc(-c2cnn(C)c2C(=O)NC2CCn3nc(-c4ccccc4)nc3C2)c(Br)s1` (centres unmarked) [Example 5.13, 4-(5-bromo-2-methylthiazol-4-yl)-1-methyl-N-(2-phenyl-5,6,7,8-tetrahydro-[1,2,4]triazolo[1,5-a]pyridin-7-yl)-1H-pyrazole-5-carboxamide] yielded an IC50 of 5 to 100 nM.
For `Cn1ncc(-c2nc(C(F)F)c(C3CC3)s2)c1C(=O)NC1CCn2nc(-c3ccccc3)nc2C1` (centres unmarked) [Example 5.8, 4-(5-cyclopropyl-4-(difluoromethyl)thylthiazol-2-yl)-1-methyl-N-(2-phenyl-5,6,7,8-tetrahydro-[1,2,4]triazolo[1,5-a]pyridin-7-yl)-1H-pyrazole-5-carboxamide] the value was 5 to 100 nM.
Turning to `Cc1nc(-c2cnn(C)c2C(=O)NC2CCn3nc(-c4ccccc4)nc3C2)c(C)s1` (centres unmarked) [Example 5.39, 4-(2,5-dimethylthiazol-4-yl)-1-methyl-N-(2-phenyl-5,6,7,8-tetrahydro-[1,2,4]triazolo[1,5-a]pyridin-7-yl)-1H-pyrazole-5-carboxamide], the half-inhibitory concentration (IC50) lay in the range of 5 to 100 nM.
Take `Cn1ncc(-c2nc(C(F)(F)F)cs2)c1C(=O)NC1CCn2nc(N3CCCC3)nc2C1` (centres unmarked) [Example 5.46, 1-methyl-N-(2-(pyrrolidin-1-yl)-5,6,7,8-tetrahydro-[1,2,4]triazolo[1,5-a]pyridin-7-yl)-4-(4-(trifluoromethyl)thiazol-2-yl)-1H-pyrazole-5-carboxamide]: the IC50 was less than 5 nM.
Take `Cn1ncc(-c2ncccc2C#N)c1C(=O)NC1CCn2nc(-c3ccccc3)nc2C1` (centres unmarked) [Example 5.27, 4-(3-cyanopyridin-2-yl)-1-methyl-N-(2-phenyl-5,6,7,8-tetrahydro-[1,2,4]triazolo[1,5-a]pyridin-7-yl)-1H-pyrazole-5-carboxamide]: the IC50 lay in the range of 5 to 100 nM.
For `Cn1ncc(-c2cc(F)ccn2)c1C(=O)Nc1cc2nc(-c3ccccc3)nn2cc1F` [Example 3.4, N-(6-fluoro-2-phenyl-[1,2,4]triazolo[1,5-a]pyridin-7-yl)-4-(4-fluoropyridin-2-yl)-1-methyl-1H-pyrazole-5-carboxamide] the value was less than 5 nM; for `C[C@H]1CCCN1c1nc2cc(NC(=O)c3c(-c4nc(C(F)(F)F)cs4)cnn3C)ccn2n1` [Example 4.10], less than 5 nM; for `Cn1ncc(-c2nccs2)c1C(=O)NC1CCn2cc(-c3ccccc3)nc2C1` (centres unmarked) [Example 2.26, 1-methyl-N-(2-phenyl-5,6,7,8-tetrahydroimidazo[1,2-a]pyridin-7-yl)-4-(thiazol-2-yl)-1H-pyrazole-5-carboxamide], 5 to 100 nM.
`Cc1nsc(-c2cnn(C)c2C(=O)NC2CCn3nc(-c4ccccc4)nc3C2)n1` (centres unmarked) [Example 5.15, 1-methyl-4-(3-methyl-1,2,4-thiadiazol-5-yl)-N-(2-phenyl-5,6,7,8-tetrahydro-[1,2,4]triazolo[1,5-a]pyridin-7-yl)-1H-pyrazole-5-carboxamide] registered a half-maximal inhibitory concentration (IC50) of 5 to 100 nM.
For `C[C@@H]1CN(c2nc3cc(NC(=O)c4c(-c5nc(C(F)F)c(Cl)s5)cnn4C)ccn3n2)C[C@H](C)O1` [Example 4.36, 4-(5-chloro-4-(difluoromethyl)thiazol-2-yl)-N-(2-((2S,6R)-2,6-dimethylmorpholino)-[1,2,4]triazolo[1,5-a]pyridin-7-yl)-1-methyl-1H-pyrazole-5-carboxamide] the value was 5 to 100 nM; for `Cc1ncc(C)c(-c2cnn(C)c2C(=O)Nc2cc3nc(-c4ccccc4C)nn3cc2F)n1` [Example 3.50, 4-(2,5-dimethylpyrimidin-4-yl)-N-(6-fluoro-2-(o-tolyl)-[1,2,4]triazolo[1,5-a]pyridin-7-yl)-1-methyl-1H-pyrazole-5-carboxamide], less than 5 nM; for `Cn1ncc(-c2cccc(C(F)(F)F)n2)c1C(=O)NC1CCn2nc(-c3ccccc3)nc2C1` (centres unmarked) [Example 5.21, 1-methyl-N-(2-phenyl-5,6,7,8-tetrahydro-[1,2,4]triazolo[1,5-a]pyridin-7-yl)-4-(6-(trifluoromethyl)pyridin-2-yl)-1H-pyrazole-5-carboxamide], 5 to 100 nM.
`Cc1cnc(C)c(-c2cnn(C)c2C(=O)NC2CCn3nc(-c4ccccc4)nc3C2)n1` (centres unmarked) [Example 5.14, 4-(3,6-dimethylpyrazin-2-yl)-1-methyl-N-(2-phenyl-5,6,7,8-tetrahydro-[1,2,4]triazolo[1,5-a]pyridin-7-yl)-1H-pyrazole-5-carboxamide] showed an IC50 of 5 to 100 nM.
In the case of `Cc1cc(-c2cnn(C)c2C(=O)Nc2cc3nc(-c4ccccc4)nn3cc2F)nc(C)n1` [Example 3.30, 4-(2,6-dimethylpyrimidin-4-yl)-N-(6-fluoro-2-phenyl-[1,2,4]triazolo[1,5-a]pyridin-7-yl)-1-methyl-1H-pyrazole-5-carboxamide], the 50% inhibitory concentration (IC50) is less than 5 nM.
`Cn1ncc(-c2nc(C(F)F)c(C3CC3)s2)c1C(=O)NC1CCn2nc(-c3ccc(F)cc3)nc2C1` (centres unmarked) [Example 5.35, 4-(5-cyclopropyl-4-(difluoromethyl)thiazol-2-yl)-N-(2-(4-fluorophenyl)-5,6,7,8-tetrahydro-[1,2,4]triazolo[1,5-a]pyridin-7-yl)-1-methyl-1H-pyrazole-5-carboxamide] gave a concentration for half-maximal inhibition (IC50) of 5 to 100 nM.
For `Cc1cccc(-c2cnn(C)c2C(=O)NC2CCn3nc(N4CCCC4)nc3C2)n1` (centres unmarked) [Example 5.47, 1-methyl-4-(6-methylpyridin-2-yl)-N-(2-(pyrrolidin-1-yl)-5,6,7,8-tetrahydro-[1,2,4]triazolo[1,5-a]pyridin-7-yl)-1H-pyrazole-5-carboxamide] the value was 5 to 100 nM; for `Cn1ncc(-c2cscn2)c1C(=O)NC1CCn2cc(-c3ccccc3)nc2C1` (centres unmarked) [Example 2.25, 1-methyl-N-(2-phenyl-5,6,7,8-tetrahydroimidazo[1,2-a]pyridin-7-yl)-4-(thiazol-4-yl)-1H-pyrazole-5-carboxamide], 5 to 100 nM.
For `Cc1nc(-c2cnn(C)c2C(=O)NC2CCn3nc(-c4ccccc4)nc3C2)sc1C1CC1` (centres unmarked) [Example 5.38, 4-(5-cyclopropyl-4-methylthiazol-2-yl)-1-methyl-N-(2-phenyl-5,6,7,8-tetrahydro-[1,2,4]triazolo[1,5-a]pyridin-7-yl)-1H-pyrazole-5-carboxamide] the value was 5 to 100 nM.
The compound `Cn1ncc(-c2nc(C(F)F)c(Cl)s2)c1C(=O)NC1CCn2nc(-c3cccc(F)c3)nc2C1` (centres unmarked) [Example 5.37, 4-(5-chloro-4-(difluoromethyl)thiazol-2-yl)-N-(2-(3-fluorophenyl)-5,6,7,8-tetrahydro-[1,2,4]triazolo[1,5-a]pyridin-7-yl)-1-methyl-1H-pyrazole-5-carboxamide] displayed an IC50 of 5 to 100 nM.
